In US20100160178A1, “SYSTEM AND METHOD FOR PRESENTING DNA BINDING SPECIFICITIES USING SPECIFICITY LANDSCAPES” (priority 2008, published 2010):

How the values were obtained:
[1] = test system: duplex DNA microarray that displays the entire sequence space; experiment: CSI (cognate site identifier) array and specificity landscape of the polyamide; format: binding
Text: (§1) CSI arrays can display the entire sequence space for about 2-10 variable base pair positions. Additionally, CSI arrays can display the entire sequence space for more than 10 base pair positions. Data relating to the binding affinities between the binding molecule and a sample set of DNA sequences (“N-mers”) has been obtained from the CSI DNA microarrays, in which every N-mer sequence is correlated to a fluorescent intensity value. The fluorescent intensity value indicates the amount of interaction between a specific N-mer and the DNA-binding molecule of interest and is proportional to binding affinity. The affinity value is the form of an equilibrium association constant (KA), or a KD value may be converted to KA by the relationship of KA=1/KD. Any biochemical/biophysical technique, other than DNA microarrays, can be used to obtain binding affinities, but these affinities must be related to a specific DNA sequence to be appropriate input for the specificity landscape.
This particular approach is an example of the data input to the specificity landscape algorithm. In particular, the present approach provides a comprehensive and unbiased understanding of the sequence-specificity of DNA binding molecules. Structural DNA variants are all examined to explore the importance of DNA structure on cognate site recognition by these ligands (data not shown). This particular example examines sequences and structural preferences of a small molecule polyamide (ImImPy*Py-γ-PyPyPyPy-β-Dp) designed to recognize the sequence 5′-W-W-G-G-W-W-W-3′ (W=A or T). […] The more distorted, or non-duplex, the DNA becomes the less affinity the polyamide has for that particular DNA sequence. Based upon previous knowledge of this polyamide, the specificity landscape unexpectedly uncovered unique insight into the polyamide relating to sequence and structural specificity of the polyamide-DNA interactions. […] The relative affinity of a particular sequence is represented by the height of the peak. The landscape provides a valuable tool to researchers looking for both the consensus sequences as well as those with the highest affinity.
Each sequence on the array is given a z-score which indicates the probability of a sequence being preferentially bound by the polyamide. As such, each sequence on the array has an intensity denoting the affinity of the polyamide to the sequence. The z-score is calculated using Equation Set 1. The sequences in the highest z-score bins, or with the highest intensities, fit the 5′-W-W-G-G-W-W-W-3′
Z=|intensity−average|/standard deviation Equation Set 1
The cognate site identifier array is a high through put approach for providing a comprehensive profile of the binding properties of DNA-binding molecules. CSI arrays display every permutation of a duplex DNA sequence on a microfabricated array. The CSI is a standard type array where each square (microarray feature) is assigned a specific nucleotide sequence, which includes a linker and a palindromic sequence with a 3-5 nucleotide turn in the middle. This palindromic sequence forms a double-stranded DNA region comprised of, for example, 8 base pairs that represents a specific permutation of an 8mer sequence. The central region of the sequence is buried, by example all or a subset of, 8 base pairs for a given 8-mer sequence. Approximately one million of the same sequences are provided for each square, each being one of the possible 8-mer sequences. A fluorescently labeled compound or antibody is included. […]

[2] = test system: every possible 9-mer DNA sequence; experiment: CSI array and specificity landscape of Nkx-2.5; format: binding
Text: as §1
The cognate site identifier array is a high through put approach for providing a comprehensive profile of the binding properties of DNA-binding molecules. CSI arrays display every permutation of a duplex DNA sequence on a microfabricated array. […]

DNA sequences = experiment: Specificity landscapes of DNA-binding proteins (FIGS. 8-10); conditions: circular specificity landscape

ImImPy*Py-γ-PyPyPyPy-β-Dp [polyamide]
base preference at position 5 [1]: prefers a T at position 5 | DNA conformer preference ([1]; B-form duplex vs structural DNA variants): prefers double-stranded DNA | affinity across permutations of the consensus motif WWGGWWW ([1]; innermost ring (Ring 1) of landscape): does not bind all the permutations of the consensus motif (WWGGWWW) with equal affinity | positions of the motif where mutations are tolerated ([1]; one mismatch ring): tolerates mutations at positions 1 and 3 | binding to non-B-form DNA bearing high affinity sequences ([1]; relative to the duplex): appreciable binding

Nkx-2.5: Nk2 transcription factor related, locus 5; earliest heart lineage marker; mouse DNA-binding protein
DNA binding motif from specificity landscape [2]: TNAAGTG and NTAAGTG | binding of sequences identical to motif TTAAGTG ([2]; relative intensities, all possible 9-mers): bind well

gata4: mouse protein gata4
DNA sequence bound (DNA sequences): 5′-WGATAA-3′

B1: msn2: yeast protein msn2 (protein, UniProt P33748 1-704, looked up)
Zinc finger protein MSN2: MTVDHDFNSEDILFPIESMSSIQYVENNNPNNINNDVIPYSLDIKNTVLDSADLNDIQNQETSLNLGLPPLSFDSPLPVTETIPSTTDNSLHLKADSNKNRDARTIENDSEIKSTNNASGSGANQYTTLTSPYPMNDILYNMNNPLQSPSPSSVPQNPTINPPINTASNETNLSPQTSNGNETLISPRAQQHTSIKDNRLSLPNGANSNLFIDTNPNNLNEKLRNQLNSDTNSYSNSISNSNSNSTGNLNSSYFNSLNIDSMLDDYVSSDLLLNDDDDDTNLSRRRFSDVITNQFPSMTNSRNSISHSLDLWNHPKINPSNRNTNLNITTNSTSSSNASPNTTTMNANADSNIAGNPKNNDATIDNELTQILNEYNMNFNDNLGTSTSGKNKSACPSSFDANAMTKINPSQQLQQQLNRVQHKQLTSSHNNSSTNMKSFNSDLYSRRQRASLPIIDDSLSYDLVNKQDEDPKNDMLPNSNLSSSQQFIKPSMILSDNASVIAKVATTGLSNDMPFLTEEGEQNANSTPNFDLSITQMNMAPLSPASSSSTSLATNHFYHHFPQQGHHTMNSKIGSSLRRRKSAVPLMGTVPLTNQQNNISSSSVNSTGNGAGVTKERRPSYRRKSMTPSRRSSVVIESTKELEEKPFHCHICPKSFKRSEHLKRHVRSVHSNERPFACHICDKKFSRSDNLSQHIKTHKKHGDI
DNA sequence bound (DNA sequences): 5′-ARGGG-3′
